In US6812214B2, “Use of harpagid-related compounds for prevention and treatment of osteoporosis, arthritis and ruptured disc and pharmaceutical composition containing the same” (priority 2000, dated 2004):
Entries after “also recorded” stand apart in the source; their conditions may differ.

Key:
[1] = Effect on arthritis of the compounds isolated from Harpagophytum procumbens DC (summary statement); details: summary in background text
COX-II [2] = assay: Inhibition of COX-II expression at the level of transcription through RT-PCR; format: cell-based
Protocol: In order to identify the ingredient having an inhibitory activity against COX-II and inducible nitric oxide synthetase (iNOS) as the causal factors of rheumatoid arthritis in the extract used as the effective component of the pharmaceutical composition according to the present invention as in Experiment 6 above, the cells were distributed in T75 flask at the concentration of 10^5 cells, incubated for 7 days and then stimulated for 2 hours by introducing LPS in the flask at the concentration of 50 ng/ml. Then, the extract of the present invention was added so as to make the final concentration of 50 μg/ml. The cells were harvested into a 1.5 ml Eppendorf tube and centrifuged with 15,000 rpm at 4° C. for 15 minutes to remove the supernatant. 200 μl of RNAzol solution was added to the residue followed by addition of 50 μl of chloroform. The cells were lysed by careful pippeting, and then centrifuged with 15,000 rpm at 4° C. for 15 minutes to recover a total RNA, which was then precipitated at 4° C. for 15 minutes by adding the same volume of isopropanol, washed once with 75% ethanol and then dried. The cell lysate was dissolved by adding 20 μl of […] and then warming the mixture at 60° C. for 30 minutes. Then, reverse transcriptase reaction was conducted at 50° C. for 20 minutes by adding 5 μl of 10 mM dNTP, 6 μl of 25 mM MgCl2, 5 μl of 10× RNA PCR buffer, 1 μl of RNase inhibitor, 1 μl of AMV-optimized Taq, 1 μl of AMV reverse transcriptase XL, 1 μl of 50 pM specific primer (sense/antisense), and 26 μl of RNase free dH2O to 5 μl of total RNA, and then stopped at 94° C. for 2 minutes to conduct DNA synthetic reaction (polymerase chain reaction: PCR). The PCR was conducted under conditions comprising 94° C. 1 minute, 55° C. 45 seconds, 70° C. 60 seconds for 35 cycles, and then, finally the elongation reaction was conducted at 70° C. for 5 minutes to complete the reaction. The resulting PCR product was eluted on 1% agarose gel and observed whether the bands are present near 395 bp and 278 bp on the basis of a size marker.

synovial cells = assay: Induction of apoptosis of synovial cell lines; format: cell-based, human; details: 10 μg/ml, 24 hours
Protocol: The synovial cells separated from outpatients suffering from rheumatoid arthritis were distributed on 5% DMEM medium supplemented with penicillin/streptomycin in a 6-well culture dish at the concentration of 10^4 cells and then incubated for 24 hours at 37° C. to observe the surviving cells. In order to determine the presence or absence of cells and the proliferating state of cells, apoptosis-induced cells were examined by taking their photographs under a phase-contrast microscope of 200 magnifications.
(§1) In order to determine whether the compound identified as the effective component of the pharmaceutical composition separated according to the present invention can induce the apoptosis of Raw 264.7 cell lines as macrophage involved in inflammatory reaction and synovial cells, the cells were distributed on 5% DMEM medium supplemented with penicillin/streptomycin in a 6-well culture dish at the concentration of 10^4 cells and then incubated at 37° C. for 24 hours while adding the extractions as above at the concentration of 10 μg/ml to observe the reaction. Apoptosis was examined by taking a photograph of apoptosis-induced cells under a polarizing microscope of 200 magnifications.

[3] = system: edema-induced albino rats; assay: Inhibitory effect on edema of arthritis (Zymosan-A / Freund's adjuvant induced paw edema); format: in vivo; details: for inhibitory effect on edema: in words, after 70 days
Protocol: In order to observe the inhibitory effect on edema of the pharmaceutical composition of the present invention, 6 albino rats weighing 200 g were used per test group to induce edema by injecting the mixture of 0.5 ml of Zymosan-A (20 mg/ml/kg) and 0.5 ml of Freund's adjuvant into ST36 position of left paw and then observed for the progress of edema for 70 days by taking a photograph before and after induction of edema. The water extract and organic solvent fractions of the pharmaceutical composition of the present invention were respectively constituted in the concentration of 0.6 mg/ml and then orally administered for 14 days to albino rats in an amount of 1 ml per kg of body weight once a day to determine the inhibitory effect on edema. As the test sample, the organic solvent fractions of the pharmaceutical composition including ABE, ABB, ABW, CBE, CBB, CBW, LNE, LNB, LNW, CRB, CRW, SSH and SSW were respectively used. As the result of this test, it was observed that edema was started to induce on day 4 and reached the peak point after about 45 days. The period for this test was established as 70 days after edema induction to observe the inhibitory effect on edema of the extracts of the present invention. As the result, the edema size was measured using a precision gauge.

Raw 264.7 cell lines [4] = assay: Induction of apoptosis of macrophages; format: cell-based; details: Raw 264.7 cells; 10 μg/ml, 24 hours
Protocol: as §1

Raw 264.7 cell lines [5] = assay: Effect on cell cycle of macrophage cells (flow cytometry); format: cell-based; details: 20 μg/ml, LPS 50 ng/ml, propidium iodide flow cytometry
Protocol: (§2) Two kinds of cells were incubated as in Experiment 6 and then washed with PBS (phosphate-buffered saline). LPS was distributed on the respective dishes at the concentration of 50 ng/ml to stimulate the cells. Then, the extract according to the present invention was added over 2 hours so as to make the final concentration of 20 μg/ml. The supernatant was removed, washed with PBS and then treated with trypsin. The cells were harvested, introduced into Eppendorf tube and then centrifuged at 1,000 rpm for 5 minutes to remove the supernatant. The residue was fixed with addition of 1 ml of 100% ethanol. At this time, the mixture of 5 μg/ml propidium iodide and RNAse was separately prepared. The fixed cells were centrifuged to remove the supernatant and then washed once with PBS. Simultaneously, the staining agent as previously prepared above was added to the fixed cells and then warmed in an incubator at 37° C. for 30 minutes. The cells stained with propidium iodide was sealed with foil, stored at 4° C. and then subjected to a flow cytometry analysis using FACscan (Becton Dickinson, Calif.) as the analyzing apparatus.

[6] = system: CAM formation induced by synovial cells; assay: Angiogenesis of synovial cells in chorioallantoic membrane (CAM) of fertilized egg; details: 10 μg/ml on CAM; compared to control group
Protocol: In order to determine the effect of the organic solvent fractions obtained in Experiment 1 on the angionenesis of synovial cells using the cells separated in Experiment 2, synovial cells were injected into fertilized egg and then incubated in an incubator at 37° C. for 3 days to observe the formation of chorioallantoic membrane (CAM). In the present state, the fractions separated according to the above method were respectively distributed on CAM at the concentration of 10 μg/ml to observe the degree of CAM decrease.

[7] = system: NO formation in RAW 264.7 cell lines; assay: NO formation in macrophage cells stimulated by lipid polysaccharide; format: cell-based; details: 10 μg/ml; LPS 50 ng/well; Greiss reagent
Protocol: In order to identify whether the extracts obtained according to the present invention can inhibit the synthesis of nitric oxide (NO) as the potent inducer of inflammation in blood due to edema as above, macrophage RAW 264.7 cell lines were distributed in a 96-well microplate at the concentration of 10^3 cells per well and then incubated for 12 hours. Then, lipid polysaccharide was added to the plate at the concentration of 50 ng/well to stimulate the cells for 2 hours. The respective organic solvent fractions were added to the plate to the final concentration of 10 μg/ml followed by addition of 50 μl of Greiss reagent solution, and then allowed to react together at room temperature. Then, the absorbance of the plate was measured at 540 nm of ELISA (enzyme-linked immunosorbent assay) reader. For comparative analysis, 0.1, 1, 10, 20, 50, 100, 150 μM sodium nitrite as the standard solution were developed with sodium nitroprusside dihydrate (SNP).

[8] = system: nogo-A expressed U-373 MG cell line; assay: Neurite regeneration in nogo-A expressing glioblastoma cells (vertebral neuroparalysis); format: cell-based; details: nogo-A transfected U-373 cells; phase-contrast microscope
Source text: Simultaneously, it was also observed whether neurites can be regenerated by treatment with neuronal growth factor (NGF) or whether the fractions of the present invention can provide the same effect, by taking a photograph with a phase-contrast microscope of 200 magnifications.

synovial cell lines = assay: Effect on cell cycle of synovial cell lines (flow cytometry); format: cell-based, human; details: 20 μg/ml, LPS 50 ng/ml, propidium iodide flow cytometry
Protocol: as §2

iNOS = assay: Inhibition of iNOS expression at the level of transcription through RT-PCR; format: cell-based; details: FIG. 11a; 50 μg/ml; LPS 50 ng/ml
Protocol: In order to identify the ingredient having an inhibitory activity against COX-II and inducible nitric oxide synthetase (iNOS) as the causal factors of rheumatoid arthritis in the extract used as the effective component of the pharmaceutical composition according to the present invention as in Experiment 6 above, the cells were distributed in T75 flask at the concentration of 10^5 cells, incubated for 7 days and then stimulated for 2 hours by introducing LPS in the flask at the concentration of 50 ng/ml. Then, the extract of the present invention was added so as to make the final concentration of 50 μg/ml. The cells were harvested into a 1.5 ml Eppendorf tube and centrifuged with 15,000 rpm at 4° C. for 15 minutes to remove the supernatant. 200 μl of RNAzol solution was added to the residue followed by addition of 50 μl of chloroform. The cells were lysed by careful pippeting, and then centrifuged with 15,000 rpm at 4° C. for 15 minutes to recover a total RNA, which was then precipitated at 4° C. for 15 minutes by adding the same volume of isopropanol, washed once with 75% ethanol and then dried. The cell lysate was dissolved by adding 20 μl of […] and then warming the mixture at 60° C. for 30 minutes. […]

COX-II [9] = assay: Expression of COX-II protein by immunocytochemical analysis in synovial cells; format: cell-based; details: 10 μg/ml
Protocol: In order to determine whether the compound identified as the effective component of the pharmaceutical composition separated by the present invention induces an inhibitory effect on COX-II of synovial cells in joint portion, 10^4 synovial cells were distributed on 5% DMEM medium supplemented with penicillin/streptomycin in 6-well culture dish containing a slimb over glass, incubated for 24 hours at 37° C., during which the extract of the present invention was added to the concentration of 10 μg/ml to observe the reaction. The waste was removed and then, the cells were washed once with PBS, fixed with methanol and then washed with PBS. The cells were labeled with the primary antibody COX-II and then allowed to stand at 4° C. for about one hour. Then, the cells were labeled with a fluorescence (fluorescein isothiocyanate: FITC) as the secondary antibody, allowed to stand for about one hour while masking from light with foil and then observed under a fluorescence microscope.

[10] = system: edema-induced albino rats; assay: Joint rupture in edema-inhibited albino rats by X-ray analysis; format: in vivo; details: oral 14 days, 75 μg/ml; about 70 days
Protocol: The respective water extract and organic solvent fractions were orally administered for 14 days at the concentration of 75 μg/ml to investigate their inhibitory effect on edema as in Experiment 1. The test albino rats were anesthetized to take X-ray photograph.

SMILES | effect on arthritis [1] | effect on COX-II expression (RT-PCR) (COX-II [2]; FIG. 11c, respective fractions) | induction of apoptosis (synovial cells) | edema size after treatment ([3]; Table 3 (best fractions), measured after 70 days, unit not given, in mm) | edema size before treatment ([3]; Table 3 (best fractions), unit not given, in mm) | inhibitory effect on edema [3] | induction of apoptosis (Raw 264.7 cell lines [4]) | effect on cell cycle (Raw 264.7 cell lines [5]) | effect on COX-II expression (RT-PCR) (COX-II [2]; FIG. 11a, 50 μg/ml, LPS 50 ng/ml) | induction of CAM formation (angiogenesis by synovial cells) [6] | inhibition of NO formation [7] | neurite pattern (regeneration of neurites) [8] | effect on cell cycle (synovial cell lines) | effect on iNOS expression (RT-PCR band near 278 bp) (iNOS) | COX-II protein expression (immunofluorescence, FITC) (COX-II [9]) | osteogenesis (X-ray) [10] | rupture of cartilage in arthritic portion (X-ray) [10]
C[C@]1(OC(=O)/C=C/c2ccccc2)C[C@@H](O)[C@]2(O)C=CO[C@@H](O[C@@H]3O[C@H](CO)[C@@H](O)[C@H](O)[C@H]3O)[C@@H]21 [LNE-1, harpagoside] | moderate pharmacological effect | strongly inhibit the protein expression | more strongly inducing the apoptosis | 5.1 ± 2 | 15.1 ± 2 | potent inhibitory effect on edema | more strongly inducing the apoptosis |  |  |  |  |  |  |  |  |  | 
OC[C@H]1O[C@H](OC[C@H]2O[C@H](OC[C@H]3O[C@H](O[C@]4(CO)O[C@H](CO)[C@@H](O)[C@@H]4O)[C@H](O)[C@@H](O)[C@@H]3O)[C@H](O)[C@@H](O)[C@H]2O)[C@H](O)[C@@H](O)[C@H]1O [LNE-2, starchyose] |  |  |  |  |  |  |  | induced G0/G1 arrest |  |  |  |  |  |  |  |  | 
C[C@]1(O)C[C@@H](O)[C@]2(O)C=CO[C@@H](O[C@H]3O[C@H](CO)[C@@H](O)[C@H](O)[C@H]3O)[C@@H]21 [LNE-3, harpagide] | most effective | strongly inhibit the protein expression | more strongly inducing the apoptosis |  |  | potent inhibitory effect on edema; also recorded: most significant | more strongly inducing the apoptosis |  | inhibitory effect at the level of transcription | more strongly inhibited the induction of CAM formation | stronger inhibitory effect on NO formation | neurites were lengthened | induced the apoptosis | have an effect on the protein expression | tendency to greatly decrease the protein expression | effect of stimulating the osteogenesis | inhibits the rupture of cartilage in arthritic portion
